PubChem BioAssay (NCI)
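Step 1: Grow cells in 96-well plates. Step 2: Expose to compound for 48 hours at 5 concentrations. Step 3: Interpolate endpoints linearly; if unreached, use highest concentration. Here, GI50 denotes the concentration required for 50% inhibition of growth. The concentration for full growth arrest is given as TGI.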

Assays:
Experiment in all cases: growth of human tumour cells (NCI), 48 h
CAKI-1 renal = test system: CAKI-1 renal
UACC-62 melanoma = test system: UACC-62 melanoma
A498 renal = test system: A498 renal
M14 melanoma = test system: M14 melanoma
HCC-2998 colon = test system: HCC-2998 colon
BT-549 breast = test system: BT-549 breast
NCI-H23 lung = test system: NCI-H23 lung
SF-539 CNS = test system: SF-539 CNS
HOP-92 NSCLC = test system: HOP-92 NSCLC
NCI/ADR-RES ovarian = test system: NCI/ADR-RES ovarian

Compound	GI50 (CAKI-1 renal)	TGI (CAKI-1 renal)	GI50 (UACC-62 melanoma)	TGI (UACC-62 melanoma)	GI50 (A498 renal)	TGI (A498 renal)	GI50 (M14 melanoma)	TGI (M14 melanoma)	GI50 (HCC-2998 colon)	TGI (HCC-2998 colon)	GI50 (BT-549 breast)	TGI (BT-549 breast)	GI50 (NCI-H23 lung)	TGI (NCI-H23 lung)	GI50 (SF-539 CNS)	TGI (SF-539 CNS)	GI50 (HOP-92 NSCLC)	TGI (HOP-92 NSCLC)	GI50 (NCI/ADR-RES ovarian)	TGI (NCI/ADR-RES ovarian)
Clc1cccc(Cn2cc(Cc3cn(Cc4cccc(Cl)c4)c4ccccc34)c3ccccc32)c1	> 100 µM	> 100 µM	> 100 µM	> 100 µM	> 100 µM	> 100 µM	> 100 µM	> 100 µM	> 100 µM	> 100 µM	> 100 µM	> 100 µM	> 100 µM	> 100 µM	> 100 µM	> 100 µM	22.5 µM	> 100 µM	–	–
COC(=O)C1=C2C3=C(C(=O)c4ccccc4C3=O)N(Cc3ccccc3)C2(OC(C)=O)C=CC1=O (configuration not stated)	1.89 µM	13.2 µM	10.6 µM	32.7 µM	–	–	15.2 µM	34 µM	4.67 µM	47.4 µM	6.9 µM	34.8 µM	11.8 µM	76.6 µM	5.9 µM	23.1 µM	0.85 µM	19.7 µM	8.56 µM	> 100 µM
c1ccc2c(c1)nnn1c3cnccc3nc21	–	> 100 µM	–	> 100 µM	–	> 100 µM	–	> 100 µM	–	> 100 µM	–	–	–	69.4 µM	–	97.2 µM	–	67 µM	–	–
Cn1c(O)c(C=N)c(=O)n(C)c1=O	–	> 100 µM	–	–	–	–	–	> 100 µM	–	> 100 µM	–	–	–	> 100 µM	–	–	–	> 100 µM	–	–
CCOC(=O)CC(=O)N(c1ccc(OC)cc1)C(C(=O)OC)c1ccccc1 (configuration not stated)	–	> 100 µM	–	> 100 µM	–	–	–	> 100 µM	–	–	–	–	–	> 100 µM	–	> 100 µM	–	–	–	> 100 µM
CCC1(O)C(=O)OCc2c1cc1n(c2=O)Cc2c-1nc1ccccc1c2OC (configuration not stated)	–	1.8 µM	–	0.413 µM	–	0.319 µM	–	0.445 µM	–	5.77 µM	–	–	–	0.0749 µM	–	0.0414 µM	–	3.57 µM	–	–
CC1=C(C)C(=O)c2c(cc3c4ccccc4ccn23)C1=O	–	–	–	> 100 µM	–	–	–	> 100 µM	–	–	–	–	–	> 100 µM	–	> 100 µM	–	–	–	–
COc1ccc(S(=O)(=O)Nc2cc(/C=C\c3cc(OC)c(OC)c(OC)c3)cc(OC)c2OC)cc1OC	0.813 µM	> 100 µM	0.494 µM	> 100 µM	0.154 µM	0.906 µM	0.419 µM	> 100 µM	1.83 µM	> 100 µM	0.664 µM	90.1 µM	3.31 µM	> 100 µM	0.518 µM	28.6 µM	0.207 µM	67.5 µM	–	–
CC12Oc3ccc4ccccc4c3C1c1c(ccc3ccccc13)O2 (configuration not stated)	–	> 100 µM	–	> 100 µM	–	–	–	> 100 µM	–	–	–	–	–	> 100 µM	–	> 100 µM	–	> 100 µM	–	–
CCOC(=O)/C(=C/c1cc(OC)ccc1OC)CC(=O)O	–	> 100 µM	–	> 100 µM	–	> 100 µM	–	> 100 µM	–	> 31.6 µM	–	–	–	> 100 µM	–	> 100 µM	–	> 100 µM	–	–
OCC1OC(n2ccc3cnccc32)CC1O (configuration not stated)	–	> 100 µM	–	> 100 µM	–	> 100 µM	–	> 100 µM	–	> 100 µM	–	–	–	> 100 µM	–	> 100 µM	–	> 100 µM	–	–
Cc1cc(N2CCOCC2)nc(N(CCNc2ccnc3cc(Cl)ccc23)Cc2ccco2)n1	–	–	3.25 µM	10 µM	2.47 µM	12.6 µM	2.34 µM	6.43 µM	6.12 µM	44.8 µM	2.8 µM	8.69 µM	5.58 µM	35.4 µM	1.95 µM	4.41 µM	2.1 µM	8.19 µM	4.5 µM	68.8 µM
C[C@H]1O[C@@H](O[C@H]2[C@@H](O)C[C@H](O[C@H]3[C@@H](O)C[C@H](O[C@H]4CC[C@]5(C)C6C[C@@H](O)[C@]7(C)[C@@H](C8=CC(=O)OC8)CC[C@]7(O)C6CC[C@@H]5C4)O[C@@H]3C)O[C@@H]2C)C[C@H](O)[C@@H]1O (some centres not stated)	0.0857 µM	0.261 µM	0.103 µM	0.228 µM	–	–	0.107 µM	0.241 µM	0.147 µM	0.486 µM	0.0246 µM	0.0928 µM	0.0251 µM	0.112 µM	0.0648 µM	0.139 µM	0.112 µM	0.529 µM	0.0552 µM	0.147 µM
O=[N+]([O-])c1ccc(Oc2cccnc2)c([N+](=O)[O-])c1	2.26 µM	22.9 µM	3.75 µM	17.3 µM	18.7 µM	43.1 µM	2.74 µM	8.61 µM	6.53 µM	41.7 µM	3.73 µM	29 µM	4.28 µM	18.7 µM	3.21 µM	12.1 µM	2.29 µM	13 µM	–	–
CC1C(=O)CCC1C(Sc1ccccc1)(Sc1ccccc1)Sc1ccccc1 (configuration not stated)	–	> 100 µM	–	> 100 µM	–	> 100 µM	–	> 100 µM	–	> 100 µM	–	–	–	> 100 µM	–	35.1 µM	–	81.8 µM	–	–
COC1OC(COCc2ccc(Cl)cc2)C(OCc2ccc(Cl)cc2)C1O (configuration not stated)	–	54.2 µM	–	31.9 µM	–	–	–	31 µM	–	32.6 µM	–	–	–	31.9 µM	–	30.3 µM	–	25.1 µM	–	–
COc1cc(-c2nn(C)nc2-c2cc3ccccc3s2)cc(OC)c1OC	3.77 µM	> 100 µM	0.0538 µM	> 100 µM	0.0413 µM	7.63 µM	0.0769 µM	> 100 µM	0.407 µM	> 100 µM	–	–	0.392 µM	> 100 µM	0.149 µM	0.903 µM	0.0806 µM	78.7 µM	0.103 µM	> 100 µM
CCOC(=O)NC(=O)c1cn(CCCCCCCCCCC(=O)N2CCN(CCn3cc(C(=O)NC(=O)OCC)c(=O)[nH]c3=O)CC2)c(=O)[nH]c1=O	–	> 100 µM	–	> 100 µM	–	> 100 µM	–	> 100 µM	–	> 100 µM	–	–	–	> 100 µM	–	> 100 µM	–	> 100 µM	–	–
